This note sets out measurements from ChEMBL document CHEMBL1159056, “Antitumor agents. 271: total synthesis and evaluation of brazilein and analogs as anti-inflammatory and cytotoxic agents” (Bioorg Med Chem Lett, 2010).

Converted amounts (≈) assume the structure as drawn.

A short description of assay [1]: Antiinflammatory activity in human neutrophils assessed as inhibition of fMLP/cytochalasin B-induced superoxide anion generation at 10 ug/mL. To be noted: Neutrophil. Format: functional.
A short description of assay [2]: Antiinflammatory activity in human neutrophils assessed as inhibition of fMLP/cytochalasin B-induced elastase release. Particulars: Neutrophil. In kind it is functional, cell-based.
The subject of another assay is A549. The assay is described as follows: Cytotoxicity against human A549 cells. In kind it is functional, cell-based.
A short description of assay [3]: Cytotoxicity against human KBVIN cells. Format: functional, cell-based.
Another assay concerns DU-145. The assay is described as follows: Cytotoxicity against human DU145 cells. In kind it is functional, cell-based.
The next assay concerns KB. The assay is described as follows: Cytotoxicity against human KB cells. In kind it is functional, cell-based.
Assay [4] can be described thus: Antiinflammatory activity in human neutrophils assessed as inhibition of fMLP/cytochalasin B-induced superoxide anion generation. In kind it is functional, cell-based. Particulars: Neutrophil.
Assay [5] in a line: Antiinflammatory activity in human neutrophils assessed as inhibition of fMLP/cytochalasin B-induced elastase release at 10 ug/mL. Particulars: Neutrophil. In kind it is functional.
The test system of a further assay is MDA-MB-231. The assay is described as follows: Cytotoxicity against human MDA-MB-231 cells. Format: functional, cell-based.
For another assay, the system named is MCF7. The assay is described as follows: Cytotoxicity against human MCF7 cells. In kind it is functional, cell-based.
Another assay concerns Ca9-22. The assay is described as follows: Cytotoxicity against human Ca9-22 cells. In kind it is functional, cell-based.
Another assay concerns HepG2. The assay is described as follows: Cytotoxicity against human HepG2 cells. Format: functional, cell-based.
Assay [6] can be described thus: Cytotoxicity against human Hep3B cells. Format: functional, cell-based, Hep 3B2.

As usually defined, the inhibition is the change of the read-out against control, counted positive when it falls. What is called IC50 is the midpoint of a concentration-inhibition curve. For `O=C1C=C2CC3(OC(=O)c4ccccc4)COc4cc(OC(=O)c5ccccc5)ccc4C3=C2C=C1OC(=O)c1ccccc1` (stereo not given), the inhibition at 10 µg/mL in [1] came to 14.1%. In assay [2], the 50% inhibitory concentration (IC50) is 13.2 µM.
On to `COC1=CC2=C3c4ccc(OC)cc4OCC3(OC)CC2=CC1=O` (stereo not given), for which the concentration for half-maximal inhibition (IC50) is above 20 µM with A549; 16.9 µM in assay [3]; 17.5 µM in the assay with DU-145; 15.2 µM in the assay with KB; 4.65 µM in [4]; 13.6 µM in [2].
Regarding `COc1ccc2c(c1)OCC1(O)Cc3cc(OC)c(OC)cc3C21` (stereo not given), the IC50 with A549 is above 20 µM; in assay [3], 7.6 µM; with DU-145 it was 13.8 µM; in the assay on KB, 10.5 µM; in assay [4] it was 4.52 µM. The inhibition at 10 µg/mL in assay [5] was found to be 35.8%.
Take `CCC(=O)OC1=CC2=C3c4ccc(OC(=O)CC)cc4OCC3(O)CC2=CC1=O` (stereo not given): the IC50 in the assay with A549 turned out to be 7.8 µM; with DU-145 it was 7.1 µM; in the assay on KB, 7.7 µM; in assay [4] it was 1.65 µM; in assay [2], 3.28 µM.
For `CCN(CC)C(=O)OC1=CC2=C3c4ccc(OC(=O)N(CC)CC)cc4OCC3(O)CC2=CC1=O` (stereo not given), the inhibition at 10 µg/mL in [1] was -7%. For the same molecule, the IC50 in [2] stood at 15.5 µM.
For the molecule `COc1ccc2c(c1)OC/C(=C\c1ccc(OC)c(OC)c1)C2=O`, the 50% inhibitory concentration (IC50) in the assay with A549 was above 20 µM; in assay [3], 18.3 µM; in the assay with DU-145, above 20 µM; in the assay with KB, above 20 µM.
Regarding `COc1ccc2c(c1)OCC1(OC1c1ccc(OC)c(OC)c1)C2=O` (stereo not given), the IC50 in the assay on A549 is above 20 µM; in assay [3], 6.4 µM; in the assay on DU-145, 10.6 µM; with KB, 9.8 µM; in assay [4], 1.9 µM. The inhibition at 10 µg/mL in [5] is 43.7%.
As for `O=C1C=C2CC3(O)COc4cc(OCc5ccccc5)ccc4C3=C2C=C1OCc1ccccc1` (stereo not given), in [1], the inhibition at 10 µg/mL is 33.4%. The IC50 in assay [2] came out at 8.76 µM.
For `COC1=CC2=C3c4ccc(OC)cc4OCC3(O)CC2=CC1=O` (stereo not given), the inhibition at 10 µg/mL in [1] was found to be 18.6%; in [5] it was 26.8%.
For `CCOC1=CC2=C3c4ccc(OCC)cc4OCC3(O)CC2=CC1=O` (stereo not given), the IC50 in the assay on A549 was 15.3 µM; in assay [3] it was 16.5 µM; with DU-145, 11 µM; in the assay on KB, 11.3 µM; in [4] it was 4.35 µM; in assay [2] it was 8.37 µM.
With `CN(C)C(=O)OC1=CC2=C3c4ccc(OC(=O)N(C)C)cc4OCC3(O)CC2=CC1=O` (stereo not given), the inhibition at 10 µg/mL in [1] was found to be 16.4%; in [5], 11.4%.
Regarding `CC(C)=CCOC1=CC2=C3c4ccc(OCC=C(C)C)cc4OCC3(O)CC2=CC1=O` (stereo not given), the values for the IC50 in [4] and in assay [2] were 19.7 µM and 10.1 µM, respectively.
The corresponding values for `C=CCOC1=CC2=C3c4ccc(OCC=C)cc4OCC3(OCC=C)CC2=CC1=O` (stereo not given) are 16.2 µM and 11.8 µM.
Take `CCOC1=CC2=C3c4ccc(OCC)cc4OCC3(OCC)CC2=CC1=O` (stereo not given): the IC50 with A549 is above 20 µM; in [3], 17.9 µM; in the assay on DU-145, 18.1 µM; in the assay on KB, 18.9 µM; in assay [4] it was 23.9 µM. In [5], the inhibition at 10 µg/mL was 35.5%.
Consider `C=CCOC1=CC2=C3c4ccc(OCC=C)cc4OCC3(O)CC2=CC1=O` (stereo not given), for which the IC50 in the assay on A549 was found to be 9.4 µM; in the assay with DU-145, 9.1 µM; with KB, 5.4 µM; in [4], 19.7 µM; in assay [2], 16.5 µM.
As for `CC(=O)OC1=CC2=C3c4ccc(OC(C)=O)cc4OCC3(O)CC2=CC1=O` (stereo not given), the IC50 with A549 worked out at 8.1 µM; with DU-145, 8.2 µM; in the assay on KB, 10 µM; in assay [4], 18.7 µM. The inhibition at 10 µg/mL in assay [5] was determined as 40.9%.
In the case of `CCC(=O)OC1=CC2=C3c4ccc(OC(=O)CC)cc4OCC3(OC(=O)CC)CC2=CC1=O` (stereo not given), the IC50 amounted to 13.5 µM in the assay on A549; 11.3 µM in assay [3]; 11 µM in the assay on DU-145; 6.6 µM in the assay with KB; 1.2 µM in [4]; 1.9 µM in assay [2].
Regarding `COc1ccc2c(c1)OCC(O)(Cc1ccc(OC)c(OC)c1)C2O` (stereo not given), the IC50 in the assay with A549 is above 20 µM; in assay [3], above 20 µM; in the assay on DU-145, above 20 µM; with KB, above 20 µM; in [4], 8.38 µM; in [2] it was 10.2 µM.
For `O=C1C=C2CC3(O)COc4cc(O)ccc4C3=C2C=C1O` (stereo not given) [BRAZILEIN], the concentration for half-maximal inhibition (IC50) is 2.36 µg/mL (≈ 8.3 µM) with MDA-MB-231; 3.96 µg/mL (≈ 13.9 µM) in the assay on MCF7; 9.68 µg/mL in the assay on A549; 8.63 µg/mL (≈ 30.4 µM) with Ca9-22; 4 µM in [4]; 14.2 µM in [2]. For the same molecule, the values for the half-inhibitory concentration (IC50) (with HepG2; in [6]) were 3.15 µg/mL (≈ 11.1 µM) and 3.42 µg/mL (≈ 12 µM), respectively.
As for `Oc1ccc2c(c1)OC[C@]1(O)Cc3cc(O)c(O)cc3[C@H]21` [BRAZILIN], the IC50 with MDA-MB-231 was determined as 3.09 µg/mL (≈ 10.8 µM); in the assay on MCF7, 6.29 µg/mL (≈ 22 µM); with A549 it was 15.6 µg/mL; in the assay with Ca9-22, 9.78 µg/mL (≈ 34.2 µM); in assay [4], 4.6 µM; in assay [2], 16.7 µM. In addition, the IC50 amounted to 3.47 µg/mL (≈ 12.1 µM) in the assay on HepG2 and 4.54 µg/mL (≈ 15.9 µM) in assay [6].
Turning to `c1ccc2c(c1)[I+]c1ccccc1-2` [DIPHENYLENEIODONIUM], in assay [4], the 50% inhibitory concentration (IC50) is 0.7 µM.
As for `COc1cccc2c1C(=O)c1c(O)c3c(c(O)c1C2=O)C[C@@](O)(C(=O)CO)C[C@@H]3O[C@H]1C[C@H](N)[C@H](O)[C@H](C)O1` [DOXORUBICIN], the half-maximal inhibitory concentration (IC50) with MDA-MB-231 was determined as 1.05 µg/mL (≈ 1.93 µM); with MCF7, 0.42 µg/mL (≈ 0.773 µM); with A549, 0.32 µg/mL; with HepG2, 0.34 µg/mL (≈ 0.626 µM); in assay [6] it was 0.56 µg/mL (≈ 1.03 µM).
`CC(=O)O[C@H]1C(=O)[C@@]2(C)[C@H]([C@H](OC(=O)c3ccccc3)[C@]3(O)C[C@H](OC(=O)[C@H](O)[C@@H](NC(=O)c4ccccc4)c4ccccc4)C(C)=C1C3(C)C)[C@]1(OC(C)=O)CO[C@@H]1C[C@@H]2O` [PACLITAXEL]: the half-inhibitory concentration (IC50) with A549 came out at 0.00193 µM; in assay [3], 0.00109 µM; with KB, 0.00155 µM.
